Key:
Dengue virus [1] = experiment: Antiviral activity against DENV infected in human Huh-7 cells assessed as percent of infected cells at 50 uM incubated for 72 hrs by flow cytometry relative to control; type: functional
[2] = Cytotoxicity against human Huh-7 cells infected with DENV assessed as reduction in cell viability by microplate spectrophotometry; type: toxicity, cell-based
Dengue virus [3] = experiment: Antiviral activity against DENV infected in human Huh-7 cells assessed as reduction in viral growth incubated for 72 hrs by flow cytometry; type: functional, organism-based; details: Huh-7, 72 h
[4] = Selectivity index, ratio of CC50 for human Huh-7 cells to EC50 for DENV infected in Huh-7 cells; type: toxicity, cell-based; details: read-out: Selectivity Index
Dengue virus [5] = experiment: Antiviral activity against DENV infected in human Huh-7 cells assessed as percent of infected cells at 12.5 uM incubated for 72 hrs by flow cytometry relative to control; type: functional

For `Brc1cccc(/N=N/Nc2ccccn2)c1`, the Activity (Dengue virus [1]) was “<=20%”, the CC50 [2] was 27.4 µM and the EC50 (Dengue virus [3]) was 8.45 µM.
`FC(F)(F)c1ccc(/N=N/Nc2ccncc2)cc1` showed a CC50 [2] of 11.9 µM.
`COc1ccc(/N=N/Nc2ccncc2)cc1` showed an Activity (Dengue virus [1]) of 22%, a CC50 [2] of 28.5 µM and an EC50 (Dengue virus [3]) of 48.1 µM.
For `CCN(CC)/N=N/c1ccc(OC)cc1`, the Activity (Dengue virus [1]) was 22%, the CC50 [2] was 24.4 µM and the EC50 (Dengue virus [3]) was greater than 50 µM.
For `COc1ccc(/N=N/n2ccnc2)cc1`, the selectivity ratio [4] was 2.22, the Activity (Dengue virus [1]) was 22% and the CC50 [2] was 72 µM. The EC50 (Dengue virus [3]) was 32.4 µM.
With `FC(F)(F)c1ccc(/N=N/n2ccnc2)cc1` the Activity (Dengue virus [5]) was 0%, the selectivity ratio [4] was greater than 12.8 and the Activity (Dengue virus [1]) was “<=20%”. The CC50 [2] was greater than 100 µM and the EC50 (Dengue virus [3]) was 7.82 µM.
With `c1ccc(/N=N/Nc2ccccn2)cc1` the Activity (Dengue virus [1]) was “<=20%”, the CC50 [2] was 22.1 µM and the EC50 (Dengue virus [3]) was 10.6 µM.
Molecule `CN(/N=N/c1cccnc1)c1ccccc1` has a CC50 [2] of 20.6 µM and an EC50 (Dengue virus [3]) of 11.7 µM.
Work on `c1cncc(/N=N/N2CCCc3ccccc32)c1` yielded an Activity (Dengue virus [1]) of 22%, a CC50 [2] of 7.09 µM and an EC50 (Dengue virus [3]) of 7.92 µM.
With `COc1ccc(/N=N/Nc2ncccc2C)cc1` the Activity (Dengue virus [1]) was 22%, the CC50 [2] was greater than 100 µM and the EC50 (Dengue virus [3]) was 11.5 µM.
In the case of `Brc1ccc(/N=N/Nc2ccccn2)cc1`, the selectivity ratio [4] is reported as 9.36, the Activity (Dengue virus [1]) is reported as “<=20%” and the CC50 [2] is reported as 75.6 µM. The EC50 (Dengue virus [3]) was 8.08 µM.
In the case of `COc1ccc(/N=N/Nc2ccccn2)cc1`, the Activity (Dengue virus [1]) is reported as “<=20%”, the CC50 [2] is reported as 15.5 µM and the EC50 (Dengue virus [3]) is reported as less than 1.56 µM.
`O[C@H]1[C@H]2c3cc4c(cc3CN3CCC(=C[C@@H]1O)[C@H]23)OCO4` [LYCORINE] gave an EC50 (Dengue virus [3]) of 1.7 µM.
For `NC(=O)c1ncn([C@@H]2O[C@H](CO)[C@@H](O)[C@H]2O)n1` [RIBAVIRIN], the EC50 (Dengue virus [3]) was 40.8 µM.

Source: ChEMBL document CHEMBL5335803, “Potential of several triazene derivatives against DENGUE viruses” (Bioorg Med Chem Lett, 2024)
